Data published in publication doi:10.1101/2024.08.19.608619, “Discovery of potent SARS-CoV-2 nsp3 macrodomain inhibitors uncovers lack of translation to cellular antiviral response” (bioRxiv, 2024).
Where two headings read alike, the source gives them in different places.

Experiments:
Assay in all cases: biochemical
Set-up in all cases: In vitro kinase panel profiling, per cent remaining kinase activity at 10 uM
[1] = biological target: T1, CK1γ1(h) (Homo sapiens, UniProt Q9HCP0); settings: atp_concentration=15, read-out: % of control remaining
T1 construct: gene CSNK1G1
T1 sequence (Q9HCP0 whole entry): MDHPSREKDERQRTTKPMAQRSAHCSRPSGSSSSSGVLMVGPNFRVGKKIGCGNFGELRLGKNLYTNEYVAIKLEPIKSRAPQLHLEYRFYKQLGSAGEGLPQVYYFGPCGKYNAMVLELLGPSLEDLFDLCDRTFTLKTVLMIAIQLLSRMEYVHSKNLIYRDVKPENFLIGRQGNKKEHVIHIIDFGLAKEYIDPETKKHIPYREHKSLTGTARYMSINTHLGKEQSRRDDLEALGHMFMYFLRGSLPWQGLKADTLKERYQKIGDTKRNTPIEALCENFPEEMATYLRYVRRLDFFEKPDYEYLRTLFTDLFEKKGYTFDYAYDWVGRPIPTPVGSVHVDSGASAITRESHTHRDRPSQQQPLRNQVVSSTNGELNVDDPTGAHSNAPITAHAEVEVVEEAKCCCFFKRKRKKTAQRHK
From the text: (§1) We derisk potential for off-target activity by profiling the compound in a CEREP panel, a standard secondary pharmacology assessment, as well as a kinase panel to derisk a potential hinge-binding motif in our leads, and a PARP panel to derisk activity against human […]. Reassuringly, the compounds are selective, with the only off-targets being moderate human CHRM2 and KOR receptors activity associated with ASAP-0011198.

[2] = biological target: T2, AMPKα1(h) (Homo sapiens, UniProt Q13131); settings: atp_concentration=45, read-out: % of control remaining
T2 construct: gene PRKAA1
From the text: as §1

[3] = biological target: T3, IRAK4(h) (Homo sapiens, UniProt Q9NWZ3); settings: atp_concentration=200, read-out: % of control remaining
T3 sequence (Q9NWZ3 1-460): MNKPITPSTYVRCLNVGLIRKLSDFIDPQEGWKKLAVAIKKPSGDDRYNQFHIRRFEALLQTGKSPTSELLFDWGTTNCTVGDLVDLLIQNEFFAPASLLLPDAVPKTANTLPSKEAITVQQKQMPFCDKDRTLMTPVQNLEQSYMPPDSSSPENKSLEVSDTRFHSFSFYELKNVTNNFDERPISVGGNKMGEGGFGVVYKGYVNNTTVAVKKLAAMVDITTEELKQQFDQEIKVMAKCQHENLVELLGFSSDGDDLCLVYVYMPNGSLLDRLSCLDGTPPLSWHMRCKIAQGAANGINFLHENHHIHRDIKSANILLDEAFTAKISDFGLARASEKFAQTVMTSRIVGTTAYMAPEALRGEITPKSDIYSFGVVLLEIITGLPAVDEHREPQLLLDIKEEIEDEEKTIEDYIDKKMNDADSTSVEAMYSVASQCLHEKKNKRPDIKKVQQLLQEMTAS
From the text: as §1

[4] = biological target: T4, IKKα(h) (Homo sapiens, UniProt O15111); settings: atp_concentration=10, read-out: % of control remaining
T4 construct: gene CHUK
T4 sequence (O15111 1-745): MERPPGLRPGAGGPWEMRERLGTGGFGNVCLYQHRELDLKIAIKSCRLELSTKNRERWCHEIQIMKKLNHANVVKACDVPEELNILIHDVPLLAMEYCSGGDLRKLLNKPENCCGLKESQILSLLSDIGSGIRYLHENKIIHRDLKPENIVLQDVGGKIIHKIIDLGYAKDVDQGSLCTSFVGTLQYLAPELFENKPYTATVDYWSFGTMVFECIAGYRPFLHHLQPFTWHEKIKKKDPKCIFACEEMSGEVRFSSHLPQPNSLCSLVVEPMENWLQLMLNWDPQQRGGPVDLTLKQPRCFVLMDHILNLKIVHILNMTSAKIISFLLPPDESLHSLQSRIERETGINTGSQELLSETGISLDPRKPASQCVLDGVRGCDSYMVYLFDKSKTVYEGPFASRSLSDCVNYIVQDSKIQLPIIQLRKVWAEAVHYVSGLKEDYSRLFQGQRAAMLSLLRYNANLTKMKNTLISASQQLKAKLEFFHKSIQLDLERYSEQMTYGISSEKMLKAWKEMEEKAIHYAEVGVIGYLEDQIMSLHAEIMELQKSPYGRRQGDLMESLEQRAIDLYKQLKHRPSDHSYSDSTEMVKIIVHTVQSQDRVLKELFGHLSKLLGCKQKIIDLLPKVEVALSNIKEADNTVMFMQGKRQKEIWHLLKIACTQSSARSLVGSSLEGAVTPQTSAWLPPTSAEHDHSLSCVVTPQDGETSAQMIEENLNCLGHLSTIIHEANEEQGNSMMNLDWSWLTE
From the text: as §1

[5] = biological target: JAK2(h) (Homo sapiens, UniProt O60674); settings: atp_concentration=45, read-out: % of control remaining
From the text: as §1

[6] = biological target: PAK2(h) (Homo sapiens, UniProt Q13177); settings: atp_concentration=90, read-out: % of control remaining
Chain of PAK2(h) (Q13177 whole entry): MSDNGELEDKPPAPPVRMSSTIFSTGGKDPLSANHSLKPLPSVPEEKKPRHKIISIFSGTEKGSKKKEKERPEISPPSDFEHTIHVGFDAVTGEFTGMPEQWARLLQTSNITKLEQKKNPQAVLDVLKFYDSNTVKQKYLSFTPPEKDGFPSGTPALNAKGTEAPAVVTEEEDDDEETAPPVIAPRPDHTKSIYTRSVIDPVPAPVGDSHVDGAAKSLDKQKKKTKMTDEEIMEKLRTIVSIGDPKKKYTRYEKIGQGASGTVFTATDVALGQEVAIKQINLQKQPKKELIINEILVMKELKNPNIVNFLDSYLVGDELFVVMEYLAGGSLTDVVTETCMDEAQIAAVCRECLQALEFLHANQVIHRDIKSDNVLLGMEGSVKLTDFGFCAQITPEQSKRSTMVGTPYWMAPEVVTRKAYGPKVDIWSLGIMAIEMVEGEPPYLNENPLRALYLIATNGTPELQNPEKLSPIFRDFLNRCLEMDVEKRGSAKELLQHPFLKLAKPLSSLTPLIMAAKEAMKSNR
From the text: as §1

[7] = biological target: T5, PI3 Kinase (p110δ/p85α)(h) (Homo sapiens, UniProt O00329); settings: atp_concentration=200, read-out: % of control remaining
T5 construct: gene PIK3CD
T5 sequence (O00329 whole entry): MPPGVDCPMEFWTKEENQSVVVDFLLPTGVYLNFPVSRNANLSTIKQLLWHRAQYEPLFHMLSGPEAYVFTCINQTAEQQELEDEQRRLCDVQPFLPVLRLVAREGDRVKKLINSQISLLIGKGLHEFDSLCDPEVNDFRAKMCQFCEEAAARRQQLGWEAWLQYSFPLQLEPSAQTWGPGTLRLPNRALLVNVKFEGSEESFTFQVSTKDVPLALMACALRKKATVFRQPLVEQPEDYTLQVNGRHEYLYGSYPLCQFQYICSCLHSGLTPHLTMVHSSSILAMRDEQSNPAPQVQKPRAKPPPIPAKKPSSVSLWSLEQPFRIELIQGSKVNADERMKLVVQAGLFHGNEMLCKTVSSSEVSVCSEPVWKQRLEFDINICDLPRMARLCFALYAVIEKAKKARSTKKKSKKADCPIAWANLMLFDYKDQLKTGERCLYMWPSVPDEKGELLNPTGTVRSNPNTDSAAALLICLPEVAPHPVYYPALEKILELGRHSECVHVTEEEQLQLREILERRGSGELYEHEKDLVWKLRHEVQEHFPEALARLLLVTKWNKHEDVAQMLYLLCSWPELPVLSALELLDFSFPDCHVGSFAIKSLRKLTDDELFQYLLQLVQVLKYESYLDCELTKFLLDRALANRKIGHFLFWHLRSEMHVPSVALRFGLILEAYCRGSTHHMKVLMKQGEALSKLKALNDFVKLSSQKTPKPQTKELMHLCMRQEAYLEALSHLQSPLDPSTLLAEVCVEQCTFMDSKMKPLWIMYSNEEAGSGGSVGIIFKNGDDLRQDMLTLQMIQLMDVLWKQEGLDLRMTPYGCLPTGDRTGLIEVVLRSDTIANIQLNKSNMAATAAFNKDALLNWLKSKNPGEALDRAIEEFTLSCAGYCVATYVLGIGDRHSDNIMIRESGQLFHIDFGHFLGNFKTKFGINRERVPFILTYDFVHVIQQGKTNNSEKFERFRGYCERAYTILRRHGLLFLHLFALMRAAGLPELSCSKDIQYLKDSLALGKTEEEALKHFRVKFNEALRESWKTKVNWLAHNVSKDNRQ
T5 sequence (P27986 whole entry partner): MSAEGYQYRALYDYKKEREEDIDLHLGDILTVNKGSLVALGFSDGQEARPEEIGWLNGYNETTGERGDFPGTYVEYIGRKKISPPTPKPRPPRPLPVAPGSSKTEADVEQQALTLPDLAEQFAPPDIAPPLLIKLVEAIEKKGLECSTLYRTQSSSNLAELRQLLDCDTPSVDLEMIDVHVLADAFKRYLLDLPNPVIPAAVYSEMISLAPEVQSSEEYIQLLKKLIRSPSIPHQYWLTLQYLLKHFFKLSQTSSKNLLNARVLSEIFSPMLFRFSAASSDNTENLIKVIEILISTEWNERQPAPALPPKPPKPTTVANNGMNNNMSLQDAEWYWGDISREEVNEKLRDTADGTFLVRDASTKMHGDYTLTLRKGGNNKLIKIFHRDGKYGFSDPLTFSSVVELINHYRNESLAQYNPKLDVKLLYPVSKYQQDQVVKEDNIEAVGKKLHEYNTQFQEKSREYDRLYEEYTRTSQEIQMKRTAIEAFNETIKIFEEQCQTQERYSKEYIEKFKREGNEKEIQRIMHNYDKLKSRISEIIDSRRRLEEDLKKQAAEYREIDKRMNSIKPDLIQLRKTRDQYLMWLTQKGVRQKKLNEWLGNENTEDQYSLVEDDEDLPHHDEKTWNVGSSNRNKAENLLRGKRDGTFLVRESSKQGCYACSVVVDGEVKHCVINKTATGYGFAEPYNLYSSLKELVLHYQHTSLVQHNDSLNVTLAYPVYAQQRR
From the text: as §1

[8] = biological target: mTOR(h) (Homo sapiens, UniProt P42345); settings: atp_concentration=70, read-out: % of control remaining
From the text: as §1

[9] = biological target: T6, Rsk1(h) (Homo sapiens, UniProt Q15418); settings: atp_concentration=45, read-out: % of control remaining
T6 construct: gene RPS6KA1
From the text: as §1

[10] = biological target: T7, MLK1(h) (Homo sapiens, UniProt P80192); settings: atp_concentration=45, read-out: % of control remaining
T7 construct: gene MAP3K9
From the text: as §1

[11] = biological target: T8, IGF-1R(h) (Homo sapiens, UniProt P08069); settings: atp_concentration=200, read-out: % of control remaining
T8 construct: gene IGF1R
From the text: as §1

[12] = biological target: KDR(h) (Homo sapiens, UniProt P35968); settings: atp_concentration=90, read-out: % of control remaining
From the text: as §1

[13] = biological target: SRPK1(h) (Homo sapiens, UniProt Q96SB4); settings: atp_concentration=10, read-out: % of control remaining
Chain of SRPK1(h) (Q96SB4 whole entry): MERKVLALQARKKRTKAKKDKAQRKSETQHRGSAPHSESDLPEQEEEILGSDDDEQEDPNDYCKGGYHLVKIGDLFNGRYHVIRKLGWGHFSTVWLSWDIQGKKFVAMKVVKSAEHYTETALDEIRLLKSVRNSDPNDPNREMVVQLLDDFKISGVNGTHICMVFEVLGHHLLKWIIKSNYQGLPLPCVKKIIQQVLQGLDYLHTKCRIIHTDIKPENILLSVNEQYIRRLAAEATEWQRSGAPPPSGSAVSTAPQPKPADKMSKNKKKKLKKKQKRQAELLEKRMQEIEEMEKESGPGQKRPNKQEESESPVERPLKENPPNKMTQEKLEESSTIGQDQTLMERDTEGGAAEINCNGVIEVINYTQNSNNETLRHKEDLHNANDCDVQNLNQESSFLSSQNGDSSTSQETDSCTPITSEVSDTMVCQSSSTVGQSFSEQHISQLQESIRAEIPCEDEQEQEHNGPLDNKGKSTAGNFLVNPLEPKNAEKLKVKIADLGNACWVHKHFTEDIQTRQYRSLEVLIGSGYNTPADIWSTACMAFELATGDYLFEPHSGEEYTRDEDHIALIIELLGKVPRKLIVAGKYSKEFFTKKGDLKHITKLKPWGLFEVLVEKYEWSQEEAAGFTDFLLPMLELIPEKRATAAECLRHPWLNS
From the text: as §1

[14] = biological target: EGFR(h) (Homo sapiens, UniProt P00533); settings: atp_concentration=10, read-out: % of control remaining
Chain of EGFR(h) (P00533 whole entry): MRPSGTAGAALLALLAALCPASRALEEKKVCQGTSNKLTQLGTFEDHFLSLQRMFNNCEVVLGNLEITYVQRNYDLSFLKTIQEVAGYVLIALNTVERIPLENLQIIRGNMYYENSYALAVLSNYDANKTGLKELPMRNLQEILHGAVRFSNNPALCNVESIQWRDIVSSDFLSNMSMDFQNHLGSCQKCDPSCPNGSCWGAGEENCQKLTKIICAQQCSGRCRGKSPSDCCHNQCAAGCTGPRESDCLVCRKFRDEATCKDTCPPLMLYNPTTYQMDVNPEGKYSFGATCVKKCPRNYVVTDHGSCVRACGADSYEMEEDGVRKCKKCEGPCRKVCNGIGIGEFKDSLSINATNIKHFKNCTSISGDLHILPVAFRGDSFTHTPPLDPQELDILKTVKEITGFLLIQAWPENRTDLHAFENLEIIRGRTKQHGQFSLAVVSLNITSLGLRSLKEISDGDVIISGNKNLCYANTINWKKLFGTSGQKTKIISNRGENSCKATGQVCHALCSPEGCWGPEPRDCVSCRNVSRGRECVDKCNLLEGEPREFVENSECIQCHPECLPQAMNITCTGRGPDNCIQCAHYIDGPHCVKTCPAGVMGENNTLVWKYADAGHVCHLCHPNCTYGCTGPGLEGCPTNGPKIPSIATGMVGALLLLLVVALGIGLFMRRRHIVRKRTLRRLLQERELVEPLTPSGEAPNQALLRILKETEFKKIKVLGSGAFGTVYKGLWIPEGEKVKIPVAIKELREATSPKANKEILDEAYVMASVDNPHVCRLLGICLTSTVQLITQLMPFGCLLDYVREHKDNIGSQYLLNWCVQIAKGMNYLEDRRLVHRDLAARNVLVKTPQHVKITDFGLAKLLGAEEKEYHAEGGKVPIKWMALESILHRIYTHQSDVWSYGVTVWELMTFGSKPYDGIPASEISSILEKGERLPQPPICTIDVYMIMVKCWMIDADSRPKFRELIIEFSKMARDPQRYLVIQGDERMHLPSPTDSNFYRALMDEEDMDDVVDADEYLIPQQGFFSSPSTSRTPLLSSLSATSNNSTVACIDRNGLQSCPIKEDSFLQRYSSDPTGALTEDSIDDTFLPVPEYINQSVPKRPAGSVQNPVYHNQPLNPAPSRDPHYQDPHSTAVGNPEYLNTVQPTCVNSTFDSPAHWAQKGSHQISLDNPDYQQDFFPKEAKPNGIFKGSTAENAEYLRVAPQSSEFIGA
From the text: as §1

CNCc1cc(-c2cc3c(N[C@@H](c4ccc5c(c4)S(=O)(=O)CCC5)C(C)C)ncnc3[nH]2)co1 [ASAP-0011176]
remaining activity at 10 µM ([1]; batch_name=ASAP-0011176-002): 99%
remaining activity at 10 µM ([2]; batch_name=ASAP-0011176-002): 86%
remaining activity at 10 µM ([3]; batch_name=ASAP-0011176-002): 100%
remaining activity at 10 µM ([4]; batch_name=ASAP-0011176-002): 79%
remaining activity at 10 µM ([5]; batch_name=ASAP-0011176-002): 114%
remaining activity at 10 µM ([6]; batch_name=ASAP-0011176-002): 94%
remaining activity at 10 µM ([7]; batch_name=ASAP-0011176-002): 80%
remaining activity at 10 µM ([8]; batch_name=ASAP-0011176-002): 105%
remaining activity at 10 µM ([9]; batch_name=ASAP-0011176-002): 90%
remaining activity at 10 µM ([10]; batch_name=ASAP-0011176-002): 86%
remaining activity at 10 µM ([11]; batch_name=ASAP-0011176-002): 99%
remaining activity at 10 µM ([12]; batch_name=ASAP-0011176-002): 88%
remaining activity at 10 µM ([13]; batch_name=ASAP-0011176-002): 101%
remaining activity at 10 µM ([14]; batch_name=ASAP-0011176-002): 97%

CC(C)C(Nc1ncnc2[nH]c(C(=O)NC3CCN(C)C3)cc12)c1ccc2c(c1)S(=O)(=O)CCC2 (stereo not drawn) [ASAP-0011198]
remaining activity at 10 µM ([1]; batch_name=ASAP-0011198-002): 100%
remaining activity at 10 µM ([2]; batch_name=ASAP-0011198-002): 107%
remaining activity at 10 µM ([3]; batch_name=ASAP-0011198-002): 105%
remaining activity at 10 µM ([4]; batch_name=ASAP-0011198-002): 82%
remaining activity at 10 µM ([5]; batch_name=ASAP-0011198-002): 106%
remaining activity at 10 µM ([6]; batch_name=ASAP-0011198-002): 99%
remaining activity at 10 µM ([7]; batch_name=ASAP-0011198-002): 99%
remaining activity at 10 µM ([8]; batch_name=ASAP-0011198-002): 103%
remaining activity at 10 µM ([9]; batch_name=ASAP-0011198-002): 94%
remaining activity at 10 µM ([10]; batch_name=ASAP-0011198-002): 96%
remaining activity at 10 µM ([11]; batch_name=ASAP-0011198-002): 104%
remaining activity at 10 µM ([12]; batch_name=ASAP-0011198-002): 96%
remaining activity at 10 µM ([13]; batch_name=ASAP-0011198-002): 108%
remaining activity at 10 µM ([14]; batch_name=ASAP-0011198-002): 102%

Cn1ncc(-c2cc3c(N[C@@H](c4ccc5c(n4)OCCO5)C(C)(C)C)ncnc3[nH]2)c1C#N [ASAP-0011221]
remaining activity at 10 µM ([1]; batch_name=ASAP-0011221-002): 94%
remaining activity at 10 µM ([2]; batch_name=ASAP-0011221-002): 109%
remaining activity at 10 µM ([3]; batch_name=ASAP-0011221-002): 132%
remaining activity at 10 µM ([4]; batch_name=ASAP-0011221-002): 125%
remaining activity at 10 µM ([5]; batch_name=ASAP-0011221-002): 140%
remaining activity at 10 µM ([6]; batch_name=ASAP-0011221-002): 111%
remaining activity at 10 µM ([7]; batch_name=ASAP-0011221-002): 73%
remaining activity at 10 µM ([8]; batch_name=ASAP-0011221-002): 105%
remaining activity at 10 µM ([9]; batch_name=ASAP-0011221-002): 136%
remaining activity at 10 µM ([10]; batch_name=ASAP-0011221-002): 94%
remaining activity at 10 µM ([11]; batch_name=ASAP-0011221-002): 77%
remaining activity at 10 µM ([12]; batch_name=ASAP-0011221-002): 83%
remaining activity at 10 µM ([13]; batch_name=ASAP-0011221-002): 117%
remaining activity at 10 µM ([14]; batch_name=ASAP-0011221-002): 99%
